US10618918B2, “Substituted boronic acids as antimicrobials” (priority 2015, dated 2020)
Like-named read-outs stand apart in the source and are kept apart here.

How the values were obtained:
EC1010 CMY-6 = experiment: Aztreonam potentiation (MPC@4), strain EC1010 CMY-6; details: minimum BLI concentration inhibiting growth with aztreonam 4 μg/mL; tested up to 40 μg/mL
KP1004 KPC-2 [1] = experiment: Aztreonam potentiation (MPC@4), strain KP1004 KPC-2; details: minimum BLI concentration inhibiting growth with aztreonam 4 μg/mL; tested up to 40 μg/mL
KP1010 SHV-12 = experiment: Aztreonam potentiation (MPC@4), strain KP1010 SHV-12; details: minimum BLI concentration inhibiting growth with aztreonam 4 μg/mL; tested up to 40 μg/mL
ECL1002 = experiment: Aztreonam potentiation (MPC@4), strain ECL1002; details: minimum BLI concentration inhibiting growth with aztreonam 4 μg/mL; tested up to 40 μg/mL
ec302 TEM-10 = experiment: Aztreonam potentiation (MPC@4), strain ec302 TEM-10; details: minimum BLI concentration inhibiting growth with aztreonam 4 μg/mL; tested up to 40 μg/mL
ec308 SHV-5 = experiment: Aztreonam potentiation (MPC@4), strain ec308 SHV-5; details: minimum BLI concentration inhibiting growth with aztreonam 4 μg/mL; tested up to 40 μg/mL
KP1005 CTX-M-14 = experiment: Tigemonam potentiation (MPC@4), strain KP1005 CTX-M-14; details: minimum BLI concentration inhibiting growth with tigemonam 4 μg/mL; tested up to 40 μg/mL
AB1054 OXA-23 = experiment: Meropenem potentiation (MPC@8), strain AB1054 OXA-23; type: cell-based, Acinetobacter baumannii; details: minimum BLI concentration inhibiting growth with meropenem 8 μg/mL; tested up to 20 μg/mL
KP1009 CTX-M-15 = experiment: Aztreonam potentiation (MPC@4), strain KP1009 CTX-M-15; details: minimum BLI concentration inhibiting growth with aztreonam 4 μg/mL; tested up to 40 μg/mL
KP1004 KPC-2 [2] = experiment: Biapenem potentiation (MPC@1), strain KP1004 KPC-2; type: cell-based; details: minimum BLI concentration inhibiting growth with biapenem 1 μg/mL; tested up to 40 μg/mL
Description: (§1) Biapenem was present in the test medium at 1 μg/mL. […] Table 3 summarizes the BLI potency of biapenem potentiation (MPC@1) for two strains overexpressing class A (KPC) and class D (OXA-48) carbapenemases. Biapenem MIC for each strain is also shown.

AB1053 OXA-72 = experiment: Meropenem potentiation (MPC@8), strain AB1053 OXA-72; type: cell-based, Acinetobacter baumannii; details: minimum BLI concentration inhibiting growth with meropenem 8 μg/mL; tested up to 20 μg/mL
[3] = target: T1, purified class A, C and D enzymes (β-lactamases) (Acinetobacter baumannii, UniProt Q9L4P2); experiment: biochemical; type: biochemical; details: purified OXA-23; nitrocefin (NCF) as reporter substrate
T1 construct: rows headed: Ki (OXA-23, NCF), uM; other: purified OXA-23; nitrocefin (NCF) as reporter substrate

[4] = target: purified class A, C and D enzymes (β-lactamases) (Klebsiella pneumoniae, UniProt Q6XEC0); experiment: biochemical; type: biochemical; details: purified OXA-48; nitrocefin (NCF) as reporter substrate
[5] = target: purified class A, C and D enzymes (β-lactamases) (Enterobacter cloacae, UniProt P05364); experiment: biochemical; type: biochemical
[6] = target: purified class A, C and D enzymes (β-lactamases) (Klebsiella pneumoniae, UniProt Q9F663); experiment: biochemical; type: biochemical; details: purified KPC-2; nitrocefin (NCF) as reporter substrate
[7] = target: T2, purified class A, C and D enzymes (β-lactamases) (Pseudomonas aeruginosa, UniProt P24735); experiment: biochemical; type: biochemical
T2 construct: rows headed: Ki (Pa-AmpC, NCF), uM; other: purified Pa-AmpC; nitrocefin (NCF) as reporter substrate

[8] = target: purified class A, C and D enzymes (β-lactamases) (Escherichia coli, UniProt Q9L5C7); experiment: biochemical; type: biochemical; details: purified CTX-M-14; nitrocefin (NCF) as reporter substrate
KP1086 OXA-48 = experiment: Biapenem potentiation (MPC@1), strain KP1086 OXA-48; type: cell-based; details: minimum BLI concentration inhibiting growth with biapenem 1 μg/mL; tested up to 40 μg/mL
Description: as §1

[9] = purified P99, nitrocefin (NCF) as reporter substrate
[10] = purified Pa-AmpC, nitrocefin (NCF) as reporter substrate, read-out: Ki (Pa-AmpC, NCF)

T2 sequence (P24735 whole entry): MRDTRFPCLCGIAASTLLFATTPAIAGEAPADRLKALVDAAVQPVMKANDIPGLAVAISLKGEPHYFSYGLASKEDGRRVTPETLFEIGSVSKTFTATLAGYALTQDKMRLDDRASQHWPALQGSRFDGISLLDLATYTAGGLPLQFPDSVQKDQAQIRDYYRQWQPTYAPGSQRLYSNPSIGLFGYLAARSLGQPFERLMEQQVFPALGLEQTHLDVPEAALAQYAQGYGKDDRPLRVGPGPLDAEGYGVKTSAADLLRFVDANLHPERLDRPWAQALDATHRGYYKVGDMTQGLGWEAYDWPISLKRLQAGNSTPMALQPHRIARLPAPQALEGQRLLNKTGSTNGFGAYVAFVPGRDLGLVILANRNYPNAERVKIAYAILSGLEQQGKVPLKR
Sequence of purified class A, C and D enzymes (β-lactamases) (Enterobacter cloacae, UniProt P05364) (P05364 21-381): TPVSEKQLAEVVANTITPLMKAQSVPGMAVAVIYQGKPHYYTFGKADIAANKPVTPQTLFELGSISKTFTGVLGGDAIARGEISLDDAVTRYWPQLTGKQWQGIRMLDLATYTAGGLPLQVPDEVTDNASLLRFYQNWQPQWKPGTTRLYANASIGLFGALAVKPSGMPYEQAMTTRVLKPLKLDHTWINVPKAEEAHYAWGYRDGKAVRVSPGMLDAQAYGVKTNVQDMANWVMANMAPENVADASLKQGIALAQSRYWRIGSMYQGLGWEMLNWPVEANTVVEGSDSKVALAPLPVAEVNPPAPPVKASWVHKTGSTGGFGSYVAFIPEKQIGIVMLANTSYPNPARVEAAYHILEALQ
T1 sequence (Q9L4P2 whole entry): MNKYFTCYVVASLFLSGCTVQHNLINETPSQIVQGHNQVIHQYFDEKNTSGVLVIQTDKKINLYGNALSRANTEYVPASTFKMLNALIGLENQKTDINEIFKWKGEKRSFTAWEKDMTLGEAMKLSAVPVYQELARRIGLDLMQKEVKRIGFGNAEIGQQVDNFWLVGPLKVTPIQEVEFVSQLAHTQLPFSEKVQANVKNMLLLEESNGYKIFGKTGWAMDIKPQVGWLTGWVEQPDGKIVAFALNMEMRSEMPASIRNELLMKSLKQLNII
Sequence of purified class A, C and D enzymes (β-lactamases) (Escherichia coli, UniProt Q9L5C7) (Q9L5C7 entry or part of it): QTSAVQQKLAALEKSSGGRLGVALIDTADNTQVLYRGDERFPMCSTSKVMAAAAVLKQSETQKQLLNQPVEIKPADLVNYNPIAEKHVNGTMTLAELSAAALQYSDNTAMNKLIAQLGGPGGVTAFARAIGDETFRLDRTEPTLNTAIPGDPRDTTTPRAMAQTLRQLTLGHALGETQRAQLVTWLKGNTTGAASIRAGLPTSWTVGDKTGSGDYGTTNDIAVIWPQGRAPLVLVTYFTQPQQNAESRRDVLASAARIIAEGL

Row | SMILES | AZT MPC4 CMY-6 EC1010 (EC1010 CMY-6) | AZT MPC4 KPC-2 KP1004 (KP1004 KPC-2 [1]) | AZT MPC4 SHV-12 KP1010 (KP1010 SHV-12) | AZT MPC4 ECL1002 (ECL1002) | AZT MPC4 TEM-10 ec302 (ec302 TEM-10) | AZT MPC4 SHV-5 ec308 (ec308 SHV-5) | TIG MPC4 CTX-M-14 KP1005 (KP1005 CTX-M-14) | MPM MPC8 AB1054 OXA-23 (AB1054 OXA-23) | AZT MPC4 CTX-M-15 KP1009 (KP1009 CTX-M-15) | BPM MPC1 KP1004 KPC-2 (KP1004 KPC-2 [2]) | MPM MPC8 AB1053 OXA-72 (AB1053 OXA-72) | Ki [3] [nM] | Ki (OXA-48, NCF), uM [4] | Ki (P99, NCF), uM [5, 9] | Ki (KPC-2, NCF), uM [6] | Ki [7, 10] [nM] | Ki (CTX-M-14, NCF), uM [8] | BPM MPC1 OXA-48 KP1086 (KP1086 OXA-48) | Ki (P99, NCF), uM [5] | Ki [7] [nM]
1 | O=C(O)c1c(F)c(F)cc2c1OB(O)CC2 [Compound 35, 6,7-Difluoro-2-hydroxy-3,4-dihydro-1,2-benzoxaborinine-8-carboxylic acid] | X (X = MPC@4 ≤ 5 μg/mL) | X (X = MPC@4 ≤ 5 μg/mL) | X (X = MPC@4 ≤ 5 μg/mL) | X (X = MPC@4 ≤ 5 μg/mL) | X (X = MPC@4 ≤ 5 μg/mL) | X (X = MPC@4 ≤ 5 μg/mL) | Y (Y = 5 μg/mL < MPC@4 ≤ 20 μg/mL) | X (X = MPC@1 ≤ 5 μg/mL) | X (X = MPC@4 ≤ 5 μg/mL) | X (X = MPC@1 ≤ 5 μg/mL) | X (X = MPC@1 ≤ 5 μg/mL) | < 100 | X (X = Ki ≤ 0.1 μM) | X (X = Ki ≤ 0.1 μM) | X (X = Ki ≤ 0.1 μM) | < 100 | X (X = Ki ≤ 0.1 μM) | X (X = MPC@1 ≤ 5 μg/mL) |  | 
2 | CS(=O)(=O)c1ccc2c(c1C(=O)O)OB(O)CC2 [Compound 39, 2-Hydroxy-7-methylsulfonyl-3,4-dihydro-1,2-benzoxaborinine-8-carboxylic acid] | X (X = MPC@4 ≤ 5 μg/mL) | X (X = MPC@4 ≤ 5 μg/mL) | X (X = MPC@4 ≤ 5 μg/mL) | X (X = MPC@4 ≤ 5 μg/mL) | X (X = MPC@4 ≤ 5 μg/mL) | X (X = MPC@4 ≤ 5 μg/mL) | Y (Y = 5 μg/mL < MPC@4 ≤ 20 μg/mL) | X (X = MPC@1 ≤ 5 μg/mL) | X (X = MPC@4 ≤ 5 μg/mL) | X (X = MPC@1 ≤ 5 μg/mL) | X (X = MPC@1 ≤ 5 μg/mL) | < 100 | X (X = Ki ≤ 0.1 μM) | X (X = Ki ≤ 0.1 μM) | X (X = Ki ≤ 0.1 μM) | < 100 | X (X = Ki ≤ 0.1 μM) | X (X = MPC@1 ≤ 5 μg/mL) |  | 
3 | COc1c(Cl)cc2c(c1C(=O)O)OB(O)CC2 [Compound 41, 6-Chloro-2-hydroxy-7-methoxy-3,4-dihydro-1,2-benzoxaborinine-8-carboxylic acid] | X (X = MPC@4 ≤ 5 μg/mL) | X (X = MPC@4 ≤ 5 μg/mL) | X (X = MPC@4 ≤ 5 μg/mL) | X (X = MPC@4 ≤ 5 μg/mL) | X (X = MPC@4 ≤ 5 μg/mL) | X (X = MPC@4 ≤ 5 μg/mL) | Y (Y = 5 μg/mL < MPC@4 ≤ 20 μg/mL) | X (X = MPC@1 ≤ 5 μg/mL) | X (X = MPC@4 ≤ 5 μg/mL) | X (X = MPC@1 ≤ 5 μg/mL) | X (X = MPC@1 ≤ 5 μg/mL) | < 100 | X (X = Ki ≤ 0.1 μM) | X (X = Ki ≤ 0.1 μM) | X (X = Ki ≤ 0.1 μM) | < 100 | X (X = Ki ≤ 0.1 μM) | X (X = MPC@1 ≤ 5 μg/mL) |  | 
4 | O=C([O-])c1c(O)ccc2c1O[B-](O)(O)CC2.[Na+].[Na+] [Compound 42, Disodium; 4,4,8-trihydroxy-5-oxa-4-boranuidabicyclo[4.4.0]deca-1(6),7,9-triene-7-carboxylate] | Z (Z = MPC@4 > 20 μg/mL) | Y (Y = 5 μg/mL < MPC@4 ≤ 20 μg/mL) | X (X = MPC@4 ≤ 5 μg/mL) | Z (Z = MPC@4 > 20 μg/mL) | Y (Y = 5 μg/mL < MPC@4 ≤ 20 μg/mL) | Y (Y = 5 μg/mL < MPC@4 ≤ 20 μg/mL) | Z (Z = MPC@4 > 20 μg/mL) | Z (Z = MPC@1 > 20 μg/mL) | Z (Z = MPC@4 > 20 μg/mL) | X (X = MPC@1 ≤ 5 μg/mL) | Z (Z = MPC@1 > 20 μg/mL) | 100 to 1000 | X (X = Ki ≤ 0.1 μM) |  | X (X = Ki ≤ 0.1 μM) |  | X (X = Ki ≤ 0.1 μM) | X (X = MPC@1 ≤ 5 μg/mL) | Y (key: X = Ki ≤ 0.1 μM; Y = 0.1 μM < Ki ≤ 1 μM; Z = Ki > 1 μM) | 100 to 1000
5 | O=C([O-])c1c(OCCF)ccc2c1O[B-](O)(O)CC2.[Na+].[Na+] [Compound 43, Disodium; 8-(2-fluoroethoxy)-4,4-dihydroxy-5-oxa-4-boranuidabicyclo[4.4.0]deca-1(6),7,9-triene-7-carboxylate] | X (X = MPC@4 ≤ 5 μg/mL) | X (X = MPC@4 ≤ 5 μg/mL) | X (X = MPC@4 ≤ 5 μg/mL) | X (X = MPC@4 ≤ 5 μg/mL) | X (X = MPC@4 ≤ 5 μg/mL) | X (X = MPC@4 ≤ 5 μg/mL) | X (X = MPC@4 ≤ 5 μg/mL) | X (X = MPC@1 ≤ 5 μg/mL) | X (X = MPC@4 ≤ 5 μg/mL) | X (X = MPC@1 ≤ 5 μg/mL) | X (X = MPC@1 ≤ 5 μg/mL) | < 100 | X (X = Ki ≤ 0.1 μM) |  | X (X = Ki ≤ 0.1 μM) |  | X (X = Ki ≤ 0.1 μM) | X (X = MPC@1 ≤ 5 μg/mL) | X (key: X = Ki ≤ 0.1 μM; Y = 0.1 μM < Ki ≤ 1 μM; Z = Ki > 1 μM) | < 100
